Reference: US12208071B2, “Glucagon receptor antagonists” (LIGAND PHARMACEUTICALS INCORPORATED, priority 2018, dated 2025)

Experiments:
[1] = Hygroscopicity (DVS) of Polymorph Form A; assay type: physicochemical
Description: Details of DVS method used in the tests are summarized below: • Test the sorption/desorption profile of testing compound at 25° C. under 0-90% relative humidity. 3.3 HPLC Method
About 10 mg Polymorph Form A was weighed and the sorption/desorption profiles were set at 25° C. under 0-90% relative humidity. The compound after testing was also subjected to an XRPD test to determine if any polymorph changes exist after exposure to a cycle of humidity change.

[2] = Long-term stability (ICH), 25° C./60% RH; assay type: physicochemical; conditions: 25° C./60% RH
Description: Polymorph Form A was manufactured under Good Manufacturing Practices (GMP)-compliant conditions at a scale of 1.26 kg. The container closure for the batch consisted of double-lined low density polyethylene bags placed inside fiberboard drums, and the batch was on ICH stability under storage conditions of 25° C./60% relative humidity (RH) and 40° C./75% RH. Long-term stability data through the 36-month interval and accelerated stability data through the 6-month interval are shown in Tables 2 and 3.
Stability samples were tested according to the protocol (Table 5) and to the same specification as the drug substance. The available stability data for samples stored at 25° C./60% RH and 40° C./75% RH are summarized.

[3] = 25° C., Cycle 1, target 0.0 % P/Po
[4] = 25° C., Cycle 1, target 10.0 % P/Po
[5] = 25° C., Cycle 1, target 20.0 % P/Po
[6] = 25° C., Cycle 1, target 30.0 % P/Po
[7] = 25° C., Cycle 1, target 40.0 % P/Po
[8] = 25° C., Cycle 1, target 50.0 % P/Po
[9] = 25° C., Cycle 1, target 60.0 % P/Po
[10] = 25° C., Cycle 1, target 70.0 % P/Po
[11] = 25° C., Cycle 1, target 80.0 % P/Po
[12] = 25° C., Cycle 1, target 90.0 % P/Po

Change in Mass (%)-ref, Desorption [1, 3]: 0.20% | Change in Mass (%)-ref, Sorption [1, 3]: 0.00% | Change in Mass (%)-ref, Desorption [1, 4]: 1.64% | Change in Mass (%)-ref, Hysteresis [1, 4]: 0.29% | Change in Mass (%)-ref, Sorption [1, 4]: 1.35% | Change in Mass (%)-ref, Desorption [1, 5]: 2.73% | Change in Mass (%)-ref, Hysteresis [1, 5]: 0.39% | Change in Mass (%)-ref, Sorption [1, 5]: 2.34% | Change in Mass (%)-ref, Desorption [1, 6]: 4.08% | Change in Mass (%)-ref, Hysteresis [1, 6]: 0.50% | Change in Mass (%)-ref, Sorption [1, 6]: 3.58% | Change in Mass (%)-ref, Desorption [1, 7]: 5.48% | Change in Mass (%)-ref, Hysteresis [1, 7]: 0.63% | Change in Mass (%)-ref, Sorption [1, 7]: 4.85% | Change in Mass (%)-ref, Desorption [1, 8]: 6.98% | Change in Mass (%)-ref, Hysteresis [1, 8]: 0.87% | Change in Mass (%)-ref, Sorption [1, 8]: 6.11% | Change in Mass (%)-ref, Desorption [1, 9]: 8.08% | Change in Mass (%)-ref, Hysteresis [1, 9]: 0.39% | Change in Mass (%)-ref, Sorption [1, 9]: 7.69% | Change in Mass (%)-ref, Desorption [1, 10]: 13.12% | Change in Mass (%)-ref, Hysteresis [1, 10]: 3.90% | Change in Mass (%)-ref, Sorption [1, 10]: 9.21% | Change in Mass (%)-ref, Desorption [1, 11]: 16.12% | Change in Mass (%)-ref, Hysteresis [1, 11]: 1.04% | Change in Mass (%)-ref, Sorption [1, 11]: 15.09% | Change in Mass (%)-ref, Desorption [1, 12]: 20.08% | Change in Mass (%)-ref, Sorption [1, 12]: 20.08% | Hygroscopicity classification ([1]; DVS, 0 to 90% RH, 25° C.): very hygroscopic | XRPD after hygroscopicity test ([1]; after a cycle of humidity change): no change | weight gain ([1]; from 0 to 90% RH, 25° C.): 20.08% | Appearance ([2]; 0 months): White | Assay (anhydrous w/w %) ([2]; 0 months): 101.3 w/w % | Chiral purity (area %) ([2]; 0 months): 99.9 area % | Individual related substance (area %, w/w), RRT 0.46 ([2]; 0 months): 0.08 area %, w/w | Individual related substance (area %, w/w), RRT 0.64 ([2]; 0 months): 0.12 area %, w/w | Individual related substance (area %, w/w), RRT 1.20 ([2]; 0 months): 0.05 area %, w/w | Purity (% area) ([2]; 0 months): 99.8 % area | Total related substances ([2]; 0 months): 0.25% | Water content (%) ([2]; 0 months): 2.1% | Appearance ([2]; 3 months): White | Assay (anhydrous w/w %) ([2]; 3 months): 102.5 w/w % | Chiral purity (area %) ([2]; 3 months): 99.8 area % | Individual related substance (area %, w/w), RRT 0.46 ([2]; 3 months): 0.08 area %, w/w | Individual related substance (area %, w/w), RRT 0.64 ([2]; 3 months): 0.12 area %, w/w | Individual related substance (area %, w/w), RRT 1.20 ([2]; 3 months): 0.05 area %, w/w | Purity (% area) ([2]; 3 months): 99.8 % area | Total related substances ([2]; 3 months): 0.25% | Water content (%) ([2]; 3 months): 6.1% | Appearance ([2]; 6 months): White | Assay (anhydrous w/w %) ([2]; 6 months): 101.1 w/w % | Chiral purity (area %) ([2]; 6 months): 99.8 area % | Individual related substance (area %, w/w), RRT 0.46 ([2]; 6 months): 0.08 area %, w/w | Individual related substance (area %, w/w), RRT 0.64 ([2]; 6 months): 0.11 area %, w/w | Individual related substance (area %, w/w), RRT 1.20 ([2]; 6 months): 0.05 area %, w/w | Purity (% area) ([2]; 6 months): 99.8 % area | Total related substances ([2]; 6 months): 0.24% | Water content (%) ([2]; 6 months): 6.5% | XRPD ([2]; 6 months): Same | Appearance ([2]; 9 months): White | Assay (anhydrous w/w %) ([2]; 9 months): 101.1 w/w % | Chiral purity (area %) ([2]; 9 months): 99.6 area % | Individual related substance (area %, w/w), RRT 0.46 ([2]; 9 months): 0.08 area %, w/w | Individual related substance (area %, w/w), RRT 0.64 ([2]; 9 months): 0.12 area %, w/w | Individual related substance (area %, w/w), RRT 1.20 ([2]; 9 months): 0.05 area %, w/w | Purity (% area) ([2]; 9 months): 99.8 % area
SMILES: Cc1cc(C)c(-c2ccc(NC(=O)[C@H](Cc3ccc(C(=O)NCCS(=O)(=O)[O-])cc3)c3ccc(-c4ccc(C(C)(C)C)cc4)cc3)cc2)c(C)c1.[Na+] [Polymorph Form A, Sodium (R)-2-(4-(2-(4′-(tert-butyl)-[1,1′-biphenyl]-4-yl)-3-oxo-3-((2′,4′,6′-trimethyl-[1,1′-biphenyl]-4-yl)amino)propyl)benzamido)ethane-1-sulfonate]
